Bounds are passed on as bounds.

The nature of this test: Western blot analysis for "B" compounds. It is filed as cell-based. The following applies: read-out: Traditional Western Degradation Potency (DC50). The procedure, abridged: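 Compound-treated cells lysed in RIPA buffer with protease inhibitors; equal protein (BCA) run on 10% SDS-PAGE, transferred to PVDF and probed with target antibodies. Band intensities quantified by densitometry and normalized to GAPDH.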
A general note: A western blot detects proteins with antibodies after separation by electrophoresis.
Usually DC50 stands for the concentration giving 50% degradation. As for `O=C1CCC(N2C(=O)c3cc4c(cc3C2=O)CN(C2CCN(CC3CN(c5ccc([C@@H]6c7ccc(O)cc7CC[C@@H]6c6ccccc6)cc5)C3)CC2)C4)C(=O)N1` (stereo partly drawn) [Compound B61, 2-(2,6-dioxopiperidin-3-yl)-6-(1-((1-(4-((1R,2S)-6-hydroxy-2-phenyl-1,2,3,4-tetrahydronaphthalen-1-yl)phenyl)azetidin-3-yl)methyl)piperidin-4-yl)-6,7-dihydropyrrolo[3,4-f]isoindole-1,3(2H,5H)-dione], the DC50 is below 10 nM.
Consider “2-(2,6-dioxopiperidin-3-yl)-6-((1S,4s)-4-((3-((4-((1R,2S)-6- hydroxy-2-phenyl-1,2,3,4-tetrahydronaphthalen-1- yl)phenyl)amino)azetidin-1-yl)methyl)cyclohexane-1- carbonyl)-6,7-dihydropyrrolo[3,4-f]isoindole-1,3(2H,5H)- dionc [Compound B113]”, for which the DC50 lay within 10 to 100 nM.
Next, `O=C1CCC(N2C(=O)c3cc4c(cc3C2=O)CN(C(=O)CN2CCC3(CC2)CCN(c2ccc([C@@H]5c6ccc(O)cc6CC[C@@H]5c5ccccc5)cc2)CC3)C4)C(=O)N1` (mixture of isomers) [Compound B18, 2-(2,6-dioxopiperidin-3-yl)-6-(2-(9-(4-((1R,2S)-6-hydroxy-2-phenyl-1,2,3,4-tetrahydronaphthalen-1-yl)phenyl)-3,9-diazaspiro[5.5]undecan-3-yl)acetyl)-6,7-dihydropyrrolo[3,4-f]isoindole-1,3(2H,5H)-dione]: 10 to 100 nM; `O=C1CCC(N2C(=O)c3cc4c(cc3C2=O)CN(C(=O)CN2CCC3(CCN(c5ccc([C@@H]6c7ccc(O)cc7CC[C@@H]6c6ccccc6)cc5)CC3)C2)C4)C(=O)N1` (mixture of isomers) [Compound B21, 2-(2,6-dioxopiperidin-3-yl)-6-(2-(8-(4-((1R,2S)-6-hydroxy-2-phenyl-1,2,3,4-tetrahydronaphthalen-1-yl)phenyl)-2,8-diazaspiro[4.5]decan-2-yl)acetyl)-6,7-dihydropyrrolo[3,4-f]isoindole-1,3(2H,5H)-dione]: above 100 nM; `O=C1CCC(N2C(=O)c3cc4c(cc3C2=O)CN(CC2CCN(CC3CN(c5ccc([C@@H]6c7ccc(O)cc7CC[C@@H]6c6ccc(F)cc6)cc5)C3)CC2)C4)C(=O)N1` (stereo partly drawn) [Compound B70, 2-(2,6-dioxopiperidin-3-yl)-6-((1-((1-(4-((1R,2S)-2-(4-fluorophenyl)-6-hydroxy-1,2,3,4-tetrahydronaphthalen-1-yl)phenyl)azetidin-3-yl)methyl)piperidin-4-yl)methyl)-6,7-dihydropyrrolo[3,4-f]isoindole-1,3(2H,5H)-dione]: above 100 nM.
Regarding `O=C1CCC(N2C(=O)c3cc4c(cc3C2=O)CN(C2CC(C(=O)N3CCCC(Oc5ccc([C@@H]6c7ccc(O)cc7CC[C@@H]6c6ccccc6)cc5)C3)C2)C4)C(=O)N1` (mixture of isomers) [Compound B14, 2-(2,6-dioxopiperidin-3-yl)-6-(3-(3-(4-((1R,2S)-6-hydroxy-2-phenyl-1,2,3,4-tetrahydronaphthalen-1-yl)phenoxy)piperidine-1-carbonyl)cyclobutyl)-6,7-dihydropyrrolo[3,4-f]isoindole-1,3(2H,5H)-dione], the DC50 is above 100 nM.
Next, `O=C1CCC(N2Cc3cc4c(cc3C2=O)CN(C(=O)C2CCN(CC3CCN(c5ccc([C@@H]6c7ccc(O)cc7CC[C@@H]6c6ccccc6)cc5)CC3)CC2)C4)C(=O)N1` (stereo partly drawn) [Compound B199, 3-(6-(1-((1-(4-((1R,2S)-6-hydroxy-2-phenyl-1,2,3,4-tetrahydronaphthalen-1-yl)phenyl)piperidin-4-yl)methyl)piperidine-4-carbonyl)-1-oxo-3,5,6,7-tetrahydropyrrolo[3,4-f]isoindol-2(1H)-yl)piperidine-2,6-dione]: above 100 nM; `O=C1CCC(N2C(=O)c3cc4c(cc3C2=O)CCN(C(=O)CN2CC3(CCN(c5ccc([C@@H]6c7ccc(O)cc7CC[C@@H]6c6ccccc6)cc5)CC3)C2)CC4)C(=O)N1` (stereo partly drawn) [Compound B42, 2-(2,6-dioxopiperidin-3-yl)-7-(2-(7-(4-((1R,2S)-6-hydroxy-2-phenyl-1,2,3,4-tetrahydronaphthalen-1-yl)phenyl)-2,7-diazaspiro[3.5]nonan-2-yl)acetyl)-6,7,8,9-tetrahydroazepino[4,5-f]isoindole-1,3(2H,5H)-dione]: above 100 nM.
Next, `O=C1CCC(N2C(=O)c3cc4c(cc3C2=O)CN(CCC(=O)NC2CCN(c3ccc([C@@H]5c6ccc(O)cc6CC[C@@H]5c5ccccc5)cc3)CC2)C4)C(=O)N1` (stereo partly drawn) [Compound B94, 3-(6-(2,6-dioxopiperidin-3-yl)-5,7-dioxo-3,5,6,7-tetrahydropyrrolo[3,4-f]isoindol-2(1H)-yl)-N-(1-(4-((1R,2S)-6-hydroxy-2-phenyl-1,2,3,4-tetrahydronaphthalen-1-yl)phenyl)piperidin-4-yl)propenamide]: above 100 nM; `O=C1CCC(N2C(=O)c3cc4c(cc3C2=O)CN(CC(=O)N2CCC3(CC2)CCN(c2ccc([C@@H]5c6ccc(O)cc6CC[C@@H]5c5ccccc5)cc2)CC3)CC4)C(=O)N1` (mixture of isomers) [Compound B191, 2-(2,6-dioxopiperidin-3-yl)-6-(2-(9-(4-((1R,2S)-6-hydroxy-2-phenyl-1,2,3,4-tetrahydronaphthalen-1-yl)phenyl)-3,9-diazaspiro[5.5]undecan-3-yl)-2-oxoethyl)-5,6,7,8-tetrahydro-1H-pyrrolo[3,4-g]isoquinoline-1,3(2H)-dione]: 10 to 100 nM.
On to `O=C1CCC(N2C(=O)c3cc4c(cc3C2=O)CN(C2CCC(CNC3CN(c5ccc([C@@H]6c7ccc(O)cc7CC[C@@H]6c6ccccc6)cc5)C3)CC2)C4)C(=O)N1` (stereo partly drawn) [Compound B181, 2-(2,6-dioxopiperidin-3-yl)-6-(4-(((1-(4-((1R,2S)-6-hydroxy-2-phenyl-1,2,3,4-tetrahydronaphthalen-1-yl)phenyl)azetidin-3-yl)amino)methyl)cyclohexyl)-6,7-dihydropyrrolo[3,4-f]isoindole-1,3(2H,5H)-dione], for which the half-maximal degradation concentration (DC50) is above 100 nM.
For the molecule `O=C1CCC(N2C(=O)c3cc4c(cc3C2=O)CN([C@H]2CC[C@H](C(=O)N3CC(Nc5ccc([C@@H]6c7ccc(O)cc7CC[C@@H]6c6ccccc6)cc5)C3)CC2)C4)C(=O)N1` (stereo partly drawn) [Compound B124, 2-(2,6-dioxopiperidin-3-yl)-6-((1S,4r)-4-(3-((4-((1R,2S)-6-hydroxy-2-phenyl-1,2,3,4-tetrahydronaphthalen-1-yl)phenyl)amino)azetidine-1-carbonyl)cyclohexyl)-6,7-dihydropyrrolo[3,4-f]isoindole-1,3(2H,5H)-dione], the 50% degradation concentration (DC50) is above 100 nM.
Next, `O=C1CCC(N2C(=O)c3cc4c(cc3C2=O)CN(CC2CN(C(=O)C3CN(c5ccc([C@@H]6c7ccc(O)cc7CC[C@@H]6c6ccccc6)cc5)C3)C2)C4)C(=O)N1` (stereo partly drawn) [Compound B37, 2-(2,6-dioxopiperidin-3-yl)-6-((1-(1-(4-((1R,2S)-6-hydroxy-2-phenyl-1,2,3,4-tetrahydronaphthalen-1-yl)phenyl)azetidine-3-carbonyl)azetidin-3-yl)methyl)-6,7-dihydropyrrolo[3,4-f]isoindole-1,3(2H,5H)-dione]: above 100 nM.
